Test results from patent publication US20260285863A1, “COMPOUNDS CAPABLE OF MODULATING GPR65” (Pathios Therapeutics Limited, priority 2023, published 2026).

Molecular target: T1, human recombinant GPR65 (Homo sapiens, UniProt Q8IYL9)
T1 construct: host or cells: 1321N1 human astrocytoma cells (1321N1-hrGPR65)
Assay: Human GPR65 cAMP HTRF antagonist assay
Format: cell-based
Details: 1321N1-hrGPR65 cells, assay pH 7.2, cAMP HTRF; read-out: hGPR65 IC50
Method in brief: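 1321N1 cells stably expressing human GPR65 were preincubated 30 min at room temperature with compound in KRH pH 7.6 containing 1 mM IBMX and 200 μM EDTA. They were then acid-stimulated to pH 7.2 for 30 min, with pH 7.9 as control. cAMP was read by HTRF (665/620 ratio), and IC50 came from normalised 4-parameter logistic fits.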

T1 sequence (Q8IYL9 whole entry): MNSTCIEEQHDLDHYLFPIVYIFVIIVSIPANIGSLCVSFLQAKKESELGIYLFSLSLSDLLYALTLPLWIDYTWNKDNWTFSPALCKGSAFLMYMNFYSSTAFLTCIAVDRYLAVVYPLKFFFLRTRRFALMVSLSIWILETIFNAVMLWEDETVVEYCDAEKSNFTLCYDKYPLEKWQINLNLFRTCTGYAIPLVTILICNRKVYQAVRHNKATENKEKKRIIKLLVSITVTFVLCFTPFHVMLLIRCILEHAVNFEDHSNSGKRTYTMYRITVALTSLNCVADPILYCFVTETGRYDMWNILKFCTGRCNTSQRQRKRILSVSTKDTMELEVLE

SMILES	IC50
O=C(Nc1cc(Cl)c(-c2ccc(OCC3CNC3)nc2)cc1F)N1[C@H]2CC[C@@H]1c1c[nH]c(=O)cc1C2 [Compound 63, (6S,9R)-N-(4-(6-(Azetidin-3-ylmethoxy)pyridin-3-yl)-5-chloro-2-fluorophenyl)-3-oxo-3,5,6,7,8,9-hexahydro-2H-6,9-epiminocyclohepta[c]pyridine-10-carboxamide]	500 to 5000 nM
O=C(Nc1cc(Cl)c(Cl)cn1)N1[C@H]2CC[C@@H]1c1ccncc1C2 [Compound 44, (5R,8S)-N-(4,5-dichloropyridin-2-yl)-6,7,8,9-tetrahydro-5H-5,8-epiminocyclohepta[c]pyridine-10-carboxamide]	< 500 nM
O=C(Nc1cc(Cl)c(COc2ccc(OCC(F)(F)F)cn2)cc1F)N1[C@H]2CC[C@@H]1c1c[nH]c(=O)cc1C2 [Compound 54, (6S,9R)-N-(5-chloro-2-fluoro-4-(((5-(2,2,2-trifluoroethoxy)pyridin-2-yl)oxy)methyl)phenyl)-3-oxo-3,5,6,7,8,9-hexahydro-2H-6,9-epiminocyclohepta[c]pyridine-10-carboxamide]	< 500 nM
CN(C(=O)C(F)(F)F)c1ccc(-c2cc(F)c(NC(=O)N3[C@H]4CC[C@@H]3c3c[nH]c(=O)cc3C4)cc2Cl)cn1 [Compound 31, (6S,9R)-N-(5-chloro-2-fluoro-4-(6-(2,2,2-trifluoro-N-methylacetamido)pyridin-3-yl)phenyl)-3-oxo-3,5,6,7,8,9-hexahydro-2H-6,9-epiminocyclohepta[c]pyridine-10-carboxamide]	500 to 5000 nM
